Marks after values point to notes of the source that are not given here.
Test system: resting platelets
Test: Platelet aggregation induced by peptide in resting washed platelets (activation)
Assay type: cell-based, human (healthy volunteers)
How it was run: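 Washed human platelets (from ACD blood, PGE1-treated) were used at 3x10^5/μl in buffer A pH 7.4 with 1.8 mM CaCl2. Light-transmission aggregometry ran at 37°C with stirring at 1100 rpm. Peptide or buffer was added at 2 min, TRAP 6 min later, and aggregation was recorded for a further 7 min.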

tat-WEQLLTTIARTINEVENQI-(NH2) [tat-ACTN1_VBS]
Platelet activation, donor 14 06 13 (Fig S10 sheet, replicate 14_06_13, peptide 50 µM, unit assumed): 68% | Platelet activation, donor 18 06 13 (Fig S10 sheet, replicate 18_06_13, peptide 50 µM, unit assumed): 73% | Platelet activation, donor 22 08 13 DONOR1 (Fig S10 sheet, replicate 22_08_13_DONOR1, peptide 50 µM, unit assumed): 59% | Platelet activation, donor 22 08 13 DONOR2 (Fig S10 sheet, replicate 22_08_13_DONOR2, peptide 50 µM, unit assumed): 41% | Activation (platelet aggregation in resting platelets after 6 minutes incubation with peptide, pal-peptides 20 μM, tat-peptides 50 μM, optical density, aggregometer, mean, n>=3): 66 ^* | Aggregation before TRAP activation, donor e (replicate donor e, pal 20 μM, tat 50 μM): 73 | Aggregation before TRAP activation, donor k (replicate donor k, pal 20 μM, tat 50 μM): 59 | Aggregation before TRAP activation, donor l (replicate donor l, pal 20 μM, tat 50 μM): 68

Reference: article PMC6349357, “Computational and experimental analysis of bioactive peptide linear motifs in the integrin adhesome” (PLoS ONE, 2019)
